Assay results reported in US20260373266A1, “PROTEIN DEGRADERS AND USES THEREOF” (KYMERA THERAPEUTICS, INC., priority 2022, published 2026).

Biological target: T1, DCAF1 WD40 domain (residues 1077-1390) (Homo sapiens, UniProt Q9Y4B6)
T1 construct: DCAF1 WD40 domain (residues 1077-1390)
Assay: DCAF1 binding assay by SPR (Biacore 8K+), DCAF1-3 KD
Details: 25 °C, read-out: DCAF1-3 SPR (KD)

T1 sequence (Q9Y4B6 1077-1390): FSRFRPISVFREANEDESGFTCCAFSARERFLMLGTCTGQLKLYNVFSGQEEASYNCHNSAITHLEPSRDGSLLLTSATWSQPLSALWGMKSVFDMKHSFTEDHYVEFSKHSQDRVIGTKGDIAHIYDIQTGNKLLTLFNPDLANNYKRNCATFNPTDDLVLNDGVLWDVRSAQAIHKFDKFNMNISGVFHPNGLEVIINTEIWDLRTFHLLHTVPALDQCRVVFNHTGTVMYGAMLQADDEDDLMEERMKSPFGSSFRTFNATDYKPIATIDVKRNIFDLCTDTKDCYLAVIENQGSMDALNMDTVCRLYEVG

| Compound | Kd [µM] |
| --- | --- |
| C=CC(=O)N1CCCC(c2[nH]ncc2C(=O)N[C@@H](CC(N)=O)c2cccc(Cl)c2)C1 (stereo partly shown) [I-469] | > 200 |
| NCCNCc1cc(N[C@@H]2CCCN(c3cccc(F)c3)C2)cc(N2CCCCC2)c1 [I-947] | 100 to 200 |
| NC(=O)C[C@H](NC(=O)c1cn[nH]c1-c1ccccc1F)c1ccc(C(N)=O)cc1 [I-354] | > 200 |
| COc1cccc(N2CCC[C@@H](Nc3cc(N4CCOCC4)ncn3)C2)c1 [I-9] | 100 to 200 |
| c1cc(N2CCC[C@@H](Nc3cc(N4CCOCC4)ncn3)C2)c2cccnc2c1 [I-393] | > 200 |
| C=CC(=O)N1CCN(c2ccnc(N[C@@H]3CCCN(c4cccc(F)c4)C3)c2)CC1C(F)(F)F (stereo partly shown) [I-655] | > 200 |
| COC(C)(c1cc(N2CCOCC2)ccn1)C1CCCN(c2cccc(F)c2)C1 (stereo not shown) [I-262] | > 200 |
| Fc1cccc(N2CCNC(Cc3cc(N4CCCCC4)ccn3)C2)c1 (stereo not shown) [I-743] | > 200 |
| Cc1cccc(N2CCC[C@@H](Nc3cc(N4CCOCC4)ncn3)C2)c1 [I-5] | > 200 |
| c1cncc(-c2csc(N3CCC[C@@H](Nc4cc(N5CCOCC5)ccn4)C3)n2)c1 [I-412] | > 200 |
| C=CC(=O)N1CCC[C@H](c2n[nH]cc2C(=O)N[C@@H](CC(N)=O)c2cccc(Cl)c2)C1 [I-483] | > 200 |
| Fc1cccc(N2CCC[C@@H](Nc3cc(N4C[C@H]5C[C@@H](C4)O5)ncn3)C2)c1 [I-311] | > 200 |
| Fc1cccc(N2CCC[C@@H](Nc3cc([C@@H]4CCCOC4)ccn3)C2)c1 [I-123] | > 200 |
| c1ccc2c(N3CCC[C@@H](Nc4cc(N5CCOCC5)ccn4)C3)ncnc2c1 [I-67] | > 200 |
| Fc1cccc(N2CCNC(Cc3cc(N4CCOCC4)ccn3)C2)c1 (stereo not shown) [I-224] | > 200 |
| Cc1ccc(N2CCOCC2)cc1N[C@@H]1CCCN(c2cccc(F)c2)C1 [I-70] | > 200 |
| COCCN(c1nccc(N2CCOCC2)n1)[C@@H]1CCCN(c2cccc(F)c2)C1 [I-40] | 100 to 200 |
| O=C1NCCc2c1cccc2N1CCC[C@@H](Nc2cc(N3CCOCC3)ccn2)C1 [I-778] | > 200 |
| O=C(O)CCN(c1cc(N2CCOCC2)ccn1)[C@@H]1CCCN(c2cccc(F)c2)C1 [I-288] | > 200 |
| c1ccc(N2CCC[C@@H](Nc3cc(N4CCOCC4)ncn3)C2)cc1 [I-2] | 100 to 200 |
| C[C@H]1CC[C@@H](Nc2cc(N3CCOCC3)ncn2)CN1c1cccc(F)c1 [I-234] | > 200 |
| NCCCCCCCCCCCCCCCCCCCCC(=O)c1[nH]cc(C(=O)N[C@@H](CC(N)=O)c2cccc(Cl)c2)c1-c1ccccc1F [I-670] | > 200 |
| NC(=O)[C@H]1CCN(C(=O)c2c[nH]nc2-c2ccccc2F)[C@@H]1c1cccc(Cl)c1 [I-203] | > 200 |

| Compound | Kd [µM] |
| --- | --- |
| NC(=O)C[C@@](NC(=O)c1c[nH]nc1-c1ccccc1F)(c1ccccc1)c1cccc(Cl)c1 [I-256] | > 200 |
| OCCC[C@@H]1C[C@@H]2[C@@H](CCCN2c2cccc(F)c2)N1c1cc(N2CCCCC2)ccn1 [I-821] | > 200 |
| Cc1sc2c(c1C)C(c1ccc(Cl)cc1)=N[C@@H](CC(=O)NCCCCCCCCCCCCCCCCCCCCC(=O)c1[nH]cc(C(=O)N[C@@H](CC(N)=O)c3cccc(Cl)c3)c1-c1ccccc1F)c1nnc(C)n1-2 [I-894] | > 200 |
| Nc1cc(N2CCOCC2)cc(N[C@@H]2CCCN(c3cccc(F)c3)C2)n1 [I-369] | > 200 |
| NC(=O)C[C@H](NC(=O)c1cn[nH]c1[C@H]1CCCOC1)c1cccc(Cl)c1 [I-345] | > 200 |
| CN(C)CC[C@H](c1ccc(N2CCC[C@@H](Nc3cc(N4CCOCC4)ccn3)C2)cc1)c1ccccn1 [I-783] | > 200 |
| NC(=O)C[C@H](NC(=O)c1c[nH]nc1-c1cc(C(=O)O)ccc1F)c1cccc(Cl)c1 [I-269] | > 200 |
| COc1ccc(N2CCC[C@@H](Nc3cc(N4CCOCC4)ncn3)C2)cc1 [I-10] | > 200 |
| C=CC(=O)Nc1cccc(N2CCC[C@@H](Nc3cc(N4CCOCC4)ccn3)C2)c1 [I-450] | > 200 |
| c1cc(N2CCOCC2)cc(NC2CCCN(c3cnn[nH]3)C2)n1 (stereo not shown) [I-486] | > 200 |
| c1cc(N2CCC[C@@H](Nc3nccc(N4CCOCC4)n3)C2)c2cnccc2c1 [I-31] | > 200 |
| O=C1C[C@H]([C@@H](NC(=O)c2cn[nH]c2-c2ccccc2F)c2cccc(Cl)c2)CN1 [I-559] | 100 to 200 |
| Cc1sc2c(c1C)C(c1ccccc1)=N[C@@H](CC(=O)NCCOCCOCCOCCOCCOCCOCCn1cc(C(=O)N[C@@H](CC(N)=O)c3cccc(Cl)c3)c(-c3ccccc3F)n1)c1nnc(C)n1-2 [I-493] | > 200 |
| NCCCCCCCCCCCCCCC(=O)c1[nH]cc(C(=O)N[C@@H](CC(N)=O)c2cccc(Cl)c2)c1-c1ccccc1F [I-663] | > 200 |
| Fc1cccc(N2CCC[C@@H](N(Cc3ccccc3)c3cc(N4CCOCC4)ncn3)C2)c1 [I-387] | > 200 |
| NC(=O)C[C@H](NC(=O)c1c[nH]nc1-c1cccc2ncnn12)c1cccc(Cl)c1 [I-237] | > 200 |
| Fc1cccc(N2[C@H]3CCC[C@@H]2[C@H](Nc2nccc(N4CCOCC4)n2)CC3)c1 (stereo in doubt) [I-322] | > 200 |
| Fc1cccc(N2CCCC(N(c3cc(N4CCOCC4)ccn3)C(F)(F)F)C2)c1 (stereo not shown) [I-305] | > 200 |
| OC[C@@H]1CCN(c2cccc(F)c2)C[C@H]1Nc1cc(N2CCCCC2)ccn1 [I-990] | 10 to 100 |
| NC(=O)C[C@H](NC(=O)c1cn(Cc2ccccc2)nc1-c1ccccc1F)c1cccc(Cl)c1 [I-495] | > 200 |
| CN1CCN(c2ccnc(N[C@@H]3CCCN(c4cccc(F)c4)C3)n2)CC1 [I-315] | > 200 |
| NCC(=O)N1CC2(CCCN(c3cccc(F)c3)C2)Nc2cc(N3CCCCC3)ncc21 (stereo not shown) [I-1020] | 10 to 100 |

Other lines, results leading:

| Kd [µM] | Compound |
| --- | --- |
| < 10 | Cc1cc(CCCOCCOCCOCCOCCOCCNC(=O)C[C@@H]2N=C(c3ccc(Cl)cc3)c3c(sc(C)c3C)-n3c(C)nnc32)cc(F)c1-c1c(C(=O)N[C@@H](CC(N)=O)c2cccc(Cl)c2)c[nH]c1C#N [I-1051] |
| 10 to 100 | O[C@@]1(c2ccccc2)CCC[C@@H](Nc2cc(N3CCCCC3)ccn2)C1 [I-929] |
| < 10 | NCCOCCOCCOCCOCCCc1ccc(C(=O)c2[nH]cc(C(=O)N[C@@H](CC(N)=O)c3cccc(Cl)c3)c2-c2c(F)ccc(F)c2F)cc1 [I-791] |
| 10 to 100 | NC(=O)C[C@H](NC(=O)c1[nH]nc(Nc2ccccc2)c1-c1ccccc1F)c1cccc(Cl)c1 [I-169] |
| 10 to 100 | OCCC[C@H]1C[C@@H]2[C@@H](CCCN2c2cccc(F)c2)N1c1cc(N2CCCCC2)ccn1 [I-825] |
| < 10 | NCCOCCOCCOCCOCCOCCOCC(=O)c1[nH]cc(C(=O)N[C@@H](CC(N)=O)c2cccc(Cl)c2)c1-c1ccccc1F [I-676] |
| < 10 | COCCOCCOCCC(c1cc(N2CC3CCC(C3)C2)ccn1)[C@@H]1CCCN(c2cccc(F)c2)C1 (stereo partly shown) [I-615] |
| 10 to 100 | C=CC(=O)NCCCN1CCN(c2ccnc(N3CC[C@@H]4[C@H]3CCCN4c3cccc(F)c3)c2)CC1 [I-846] |
| 10 to 100 | c1cc(N2CCOCC2)cc(N[C@@H]2CCCN(c3ccc(OCCN4CCCC4)nc3)C2)n1 [I-677] |
| < 10 | c1cc(CN2CCCC2)cc(N2CCC[C@@H](Nc3cc(N4CCOCC4)ccn3)C2)c1 [I-689] |
| < 10 | CC(=O)NC1CCC2(CC1)CCN(c1ccnc(N3CC[C@@H]4[C@H]3CCCN4c3cccc(F)c3)c1)CC2 [I-1047] |
| < 10 | O=C1COc2cc(N3CCC[C@@H](Nc4cc(N5CCOCC5)ccn4)C3)cnc2N1 [I-431] |
| 10 to 100 | OC[C@H]1C[C@H](Nc2cc(N3CCCCC3)ccn2)CN(c2cccc(F)c2)C1 [I-1012] |
| < 10 | Cc1c(F)ccc(F)c1-c1c(C(=O)N[C@@H](CC(=O)N2CCNCC2)c2cccc(Cl)c2)c[nH]c1C(=O)c1ccccc1 [I-851] |
| < 10 | O=C1NCCN1Cc1cccc(N2CCC[C@H]3[C@@H]2CCN3c2cc(N3CCCCC3)ccn2)c1 [I-960] |
| < 10 | C[C@H]1CCCC[C@H]1c1[nH]ncc1C(=O)N[C@@H](CC(N)=O)c1cccc(Cl)c1 [I-723] |
| < 10 | Cc1cccc(C)c1-c1[nH]ncc1C(=O)N[C@@H](CC(N)=O)c1cccc(Cl)c1 [I-595] |

| Kd [µM] | Compound |
| --- | --- |
| < 10 | Fc1cccc(N2CCCC(N3CCc4c(N5CC6CC(C6)C5)ccnc43)C2)c1 (stereo not shown) [I-790] |
| 10 to 100 | c1ccc2c(N3CCC[C@@H](Nc4nccc(N5CCOCC5)n4)C3)nccc2c1 [I-36] |
| 10 to 100 | Cc1cccc(F)c1-c1[nH]ncc1C(=O)N[C@@H](CC(N)=O)c1cc(F)cc(Cl)c1 [I-748] |
| < 10 | NCCOCCOCCOCCOCC(=O)c1[nH]cc(C(=O)N[C@@H](CC(N)=O)c2cccc(Cl)c2)c1-c1ccccc1F [I-674] |
| < 10 | C=CC(=O)NCCCC1CCN(c2ccnc(N3CC[C@H]4[C@@H]3CCCN4c3cccc(F)c3)c2)CC1 [I-712] |
| < 10 | Fc1cccc(N2CCC[C@@H]3[C@H]2CCN3c2cc(N3CC4CC(C4)C3)ccn2)c1 [I-623] |
| < 10 | NC(=O)C[C@H](NC(=O)c1c[nH]c(-c2ccc[nH]2)c1-c1ccccc1F)c1cccc(Cl)c1 [I-600] |
| 10 to 100 | NC(=O)CCc1cc(N2CCC[C@@H]3[C@H]2CCN3c2cc(N3CCCCC3)ccn2)ccc1F [I-875] |
| < 10 | Cc1c(F)ccc(F)c1-c1c(C(=O)N[C@@H](CC(N)=O)c2cccc(Cl)c2)cn(C)c1C(=O)c1ccc(C#CCOC2CCNCC2)cc1 [I-1003] |
| < 10 | NC(=O)C[C@H](NC(=O)c1cn[nH]c1-c1c(F)cccc1C1CC1)c1cccc(Cl)c1 [I-590] |
| < 10 | Cc1c(F)ccc(F)c1-c1c(C(=O)N[C@@H](CC(N)=O)c2cccc(Cl)c2)cn(C)c1C(=O)c1ccc(OCCOCCOCCOCCOCCN)cc1 [I-1017] |
| < 10 | Cc1c(F)ccc(F)c1-c1c(C(=O)N[C@@H](CC(N)=O)c2cccc(Cl)c2)csc1C(=O)c1ccccc1 [I-944] |
| < 10 | Cc1sc2c(c1C)C(c1ccc(Cl)cc1)=N[C@@H](CC(=O)NCCOCCOCCOCCOCCC1CCN(c3ccnc(N4CC[C@@H]5[C@H]4CCCN5c4cccc(F)c4)c3)CC1)c1nnc(C)n1-2 [I-890] |
| 10 to 100 | O[C@H]1CC[C@@H](Nc2cc(N3CCCCC3)ccn2)C[C@@H]1c1ccccc1 [I-984] |
| < 10 | NC(=O)C[C@H](NC(=O)C1=C(c2c(F)cccc2F)CNC1)c1cccc(Cl)c1 [I-586] |
| 10 to 100 | NC(=O)OCc1cccc(N2CCC[C@@H]3[C@H]2CCN3c2cc(N3CCCCC3)ccn2)c1 [I-955] |
| 10 to 100 | Fc1cccc(N2CCC[C@H]3[C@@H]2CCN3c2cc(N3CC4CCC(C4)C3)ccn2)c1 [I-605] |
